From ChEMBL document CHEMBL1156067, “Pyrimidine-based antagonists of h-MCH-R1 derived from ATC0175: in vitro profiling and in vivo evaluation” (Bioorg Med Chem Lett, 2009)
The source made the active and inactive calls. The rule behind the calls is not given here.

Legend:
[1] = molecular target: T1, Melanin-concentrating hormone receptor 1 (Homo sapiens, UniProt Q99705); test: Antagonist activity at CART form of human MCH1 receptor expressed in HEK293 cells coexpressing Galphaq assessed as inhibition of MCH-induced intracellular calcium level by FLIPR assay; type: functional, cell-based
Target sequence in this assay (Q99705 whole entry, looked up): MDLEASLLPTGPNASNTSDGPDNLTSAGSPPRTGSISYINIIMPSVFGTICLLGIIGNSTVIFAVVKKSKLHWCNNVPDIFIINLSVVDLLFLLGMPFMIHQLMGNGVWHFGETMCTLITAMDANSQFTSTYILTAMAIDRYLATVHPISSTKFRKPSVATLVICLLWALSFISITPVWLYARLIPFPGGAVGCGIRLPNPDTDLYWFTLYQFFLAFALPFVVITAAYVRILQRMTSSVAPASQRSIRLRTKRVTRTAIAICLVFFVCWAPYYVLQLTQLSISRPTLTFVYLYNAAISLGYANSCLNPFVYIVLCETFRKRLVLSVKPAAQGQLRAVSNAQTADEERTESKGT

[2] = test system: Rattus norvegicus; test: Reduction in food intake in diet-induced obese Wistar rat chronic feeding model at 6 mg/kg, po once daily measured after 14 days; type: functional, organism-based; design: dose 6 mg/kg
[3] = test system: Rattus norvegicus; test: Reduction in food intake in diet-induced obese Wistar rat chronic feeding model at 6 mg/kg, po once daily after 8 days; type: functional, organism-based; design: dose 6 mg/kg
[4] = molecular target: T2, Alpha-2A adrenergic receptor (Homo sapiens, UniProt P08913); test: Displacement of [3H]MK-912 from human adrenergic alpha2A receptor
T2 sequence (P08913 whole entry): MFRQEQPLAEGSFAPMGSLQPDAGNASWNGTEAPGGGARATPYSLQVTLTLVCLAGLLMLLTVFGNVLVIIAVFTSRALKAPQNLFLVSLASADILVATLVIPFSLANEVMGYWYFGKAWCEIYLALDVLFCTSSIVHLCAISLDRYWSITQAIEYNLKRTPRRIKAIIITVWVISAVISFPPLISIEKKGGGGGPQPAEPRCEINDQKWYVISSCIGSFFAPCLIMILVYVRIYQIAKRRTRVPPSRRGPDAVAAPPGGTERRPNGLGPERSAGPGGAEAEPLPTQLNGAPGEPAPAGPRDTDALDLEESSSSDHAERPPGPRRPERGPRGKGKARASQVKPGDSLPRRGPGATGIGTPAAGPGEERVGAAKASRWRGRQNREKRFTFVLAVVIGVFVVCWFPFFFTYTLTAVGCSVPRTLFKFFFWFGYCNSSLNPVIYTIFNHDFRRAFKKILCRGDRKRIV

[5] = molecular target: T3, 5-hydroxytryptamine receptor 2B (Homo sapiens, UniProt P41595); test: Displacement of [3H]rauwolsine from human 5HT2B receptor
T3 sequence (P41595 whole entry): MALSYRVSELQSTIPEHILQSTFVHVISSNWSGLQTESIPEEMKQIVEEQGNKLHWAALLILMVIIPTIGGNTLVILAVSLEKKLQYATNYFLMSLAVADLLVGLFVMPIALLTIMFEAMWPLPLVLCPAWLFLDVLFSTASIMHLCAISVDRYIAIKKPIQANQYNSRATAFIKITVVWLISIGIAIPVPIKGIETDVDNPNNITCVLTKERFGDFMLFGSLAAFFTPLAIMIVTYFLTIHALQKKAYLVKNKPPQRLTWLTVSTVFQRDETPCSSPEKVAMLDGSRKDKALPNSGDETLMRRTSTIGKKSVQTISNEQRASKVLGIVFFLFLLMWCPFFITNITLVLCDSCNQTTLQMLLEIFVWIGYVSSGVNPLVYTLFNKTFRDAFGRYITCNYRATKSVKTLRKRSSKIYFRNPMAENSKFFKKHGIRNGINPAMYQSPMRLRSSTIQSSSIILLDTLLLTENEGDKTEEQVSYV

[6] = molecular target: Histamine H1 receptor (Homo sapiens, UniProt P35367); test: Displacement of [3H]pyrilamine from human histamine H1 receptor
Chain of Histamine H1 receptor (P35367 whole entry): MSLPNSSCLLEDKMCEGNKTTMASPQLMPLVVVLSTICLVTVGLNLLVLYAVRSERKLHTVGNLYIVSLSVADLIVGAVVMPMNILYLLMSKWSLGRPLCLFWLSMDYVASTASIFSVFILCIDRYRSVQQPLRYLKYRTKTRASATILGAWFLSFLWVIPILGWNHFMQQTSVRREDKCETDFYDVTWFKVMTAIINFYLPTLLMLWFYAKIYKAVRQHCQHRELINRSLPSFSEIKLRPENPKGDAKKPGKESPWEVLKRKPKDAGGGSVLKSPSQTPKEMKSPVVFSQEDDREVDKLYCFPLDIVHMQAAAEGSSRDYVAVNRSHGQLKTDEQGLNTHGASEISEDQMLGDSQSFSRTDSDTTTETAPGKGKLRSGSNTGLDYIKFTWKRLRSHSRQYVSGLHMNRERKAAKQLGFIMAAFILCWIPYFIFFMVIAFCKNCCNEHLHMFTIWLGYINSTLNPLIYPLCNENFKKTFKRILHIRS

[7] = molecular target: T4, Alpha-1A adrenergic receptor (Homo sapiens, UniProt P35348); test: Displacement of [3H]prazosin from human adrenergic alpha1A receptor
T4 sequence (P35348 whole entry): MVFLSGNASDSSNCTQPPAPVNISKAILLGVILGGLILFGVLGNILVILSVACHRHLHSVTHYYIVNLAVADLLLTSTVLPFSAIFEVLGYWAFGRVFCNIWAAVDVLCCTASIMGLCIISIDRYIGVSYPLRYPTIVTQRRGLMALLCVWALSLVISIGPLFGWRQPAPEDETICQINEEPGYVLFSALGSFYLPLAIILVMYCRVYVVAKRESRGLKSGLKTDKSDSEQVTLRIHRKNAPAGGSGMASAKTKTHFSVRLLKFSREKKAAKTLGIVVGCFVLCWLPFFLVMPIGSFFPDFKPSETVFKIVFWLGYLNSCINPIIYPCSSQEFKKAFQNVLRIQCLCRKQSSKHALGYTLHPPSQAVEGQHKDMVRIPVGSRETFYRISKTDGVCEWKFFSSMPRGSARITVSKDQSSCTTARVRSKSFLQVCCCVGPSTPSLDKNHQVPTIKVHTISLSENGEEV

[8] = molecular target: T1, Melanin-concentrating hormone receptor 1; test: Antagonist activity at CART form of human MCH1 receptor expressed in HEK293 cells coexpressing Galphaq assessed as inhibition of MCH-induced intracellular calcium level up to 10 uM by FLIPR assay; type: functional, cell-based
Target sequence in this assay (Q99705 whole entry): as the sequence (Q99705 whole entry, looked up) above

[9] = Ratio of drug level in brain to plasma in po dosed rat; type: ADME, organism-based
[10] = Plasma concentration in Sprague-Dawley rat at 10 mg/kg, po after 4 hrs; type: ADME, organism-based; design: dose 10 mg/kg, route oral
[11] = Drug level in Sprague-Dawley rat brain at 10 mg/kg, po after 4 hrs; type: ADME, organism-based; design: dose 10 mg/kg, route oral
[12] = molecular target: T5, 5-hydroxytryptamine receptor 1A (Homo sapiens, UniProt P08908); test: Inhibition of human 5HT1A
T5 sequence (P08908 whole entry): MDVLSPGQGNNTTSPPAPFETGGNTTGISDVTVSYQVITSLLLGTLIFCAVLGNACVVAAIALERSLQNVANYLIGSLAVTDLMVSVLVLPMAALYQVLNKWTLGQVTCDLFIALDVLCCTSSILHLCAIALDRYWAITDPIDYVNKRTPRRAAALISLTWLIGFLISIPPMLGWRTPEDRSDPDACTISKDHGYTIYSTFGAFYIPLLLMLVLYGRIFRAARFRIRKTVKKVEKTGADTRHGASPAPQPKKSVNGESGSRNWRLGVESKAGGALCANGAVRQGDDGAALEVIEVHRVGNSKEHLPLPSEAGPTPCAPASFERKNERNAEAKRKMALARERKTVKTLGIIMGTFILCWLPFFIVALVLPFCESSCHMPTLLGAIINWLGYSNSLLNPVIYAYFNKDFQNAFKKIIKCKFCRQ

[13] = molecular target: T3, 5-hydroxytryptamine receptor 2B; test: Displacement of [125I]LSD from human 5HT2B receptor
[14] = Drug level in Sprague-Dawley rat brain at 10 mg/kg, po after 2 hrs; type: ADME, organism-based; design: dose 10 mg/kg, route oral
[15] = Plasma concentration in Sprague-Dawley rat at 10 mg/kg, po after 2 hrs; type: ADME, organism-based; design: dose 10 mg/kg, route oral

SMILES	IC50 [1] [nM]	IC50 [4] [nM]	IC50 [5] [nM]	IC50 [6] [nM]	IC50 [7] [nM]	other results
Cc1cc(N(C)C)nc(N[C@H]2CC[C@@H](NC(=O)c3ccc(F)cc3)CC2)n1	25	–	–	–	–	–
CC(C)CC(N(C)C)C1(c2ccc(Cl)cc2)CCC1 (centres undefined)	–	–	–	–	–	Activity [2]: inactive; Activity [3]: Active
Cc1cc(N(C)C)nc(N[C@H]2CC[C@@H](CNC(=O)c3cc(Cl)cc(Cl)c3)CC2)n1	64	–	–	–	–	–
Cc1ccc(C(=O)N[C@H]2CC[C@@H](Nc3ncc(C)c(N(C)C)n3)CC2)cc1	13	1770	120	170	> 10000	–
Cc1cnc(N[C@H]2CC[C@@H](CNC(=O)c3cc(Cl)cc(Cl)c3)CC2)nc1N(C)C	4	–	–	–	–	–
Cc1cnc(N[C@H]2CC[C@@H](CNC(=O)c3cc(C(F)(F)F)cc(C(F)(F)F)c3)CC2)nc1N1CCCC1	–	–	–	–	–	Activity [8]: inactive
Cc1cc(N(C)C)nc(N[C@H]2CC[C@@H](NC(=O)c3cc(C(F)(F)F)cc(C(F)(F)F)c3)CC2)n1	8	200	> 10000	1210	1320	–
COCC1=C(C(=O)OC)[C@H](c2ccc(F)c(F)c2)N(C(=O)NCCCN2CCC(c3cccc(NC(C)=O)c3)CC2)C(=O)N1 [SNAP-7941]	–	–	–	–	–	pA2 [1]: 9.24
Cc1cccc(C(=O)N[C@H]2CC[C@@H](Nc3nc(C)cc(N(C)C)n3)CC2)c1	9.6	–	–	–	–	–
Cc1cc(N(C)C)nc(N[C@H]2CC[C@@H](NC(=O)c3cccc(Cl)c3)CC2)n1	6.5	–	–	–	–	–
Cc1cnc(N[C@H]2CC[C@@H](NC(=O)c3ccc(F)c(F)c3)CC2)nc1NC(C)C	–	–	–	–	–	Activity [8]: inactive
Cc1cnc(N[C@H]2CC[C@@H](NC(=O)c3ccc(F)cc3)CC2)nc1N(C)C	6	470	300	810	7500	–
CN(C)c1nc(N[C@H]2CC[C@@H](NC(=O)c3ccc(F)c(F)c3)CC2)nc2ccccc12	–	104	150	150	300	Kp [9]: 0.5; concentration at 4 h [10]: 101 ng/mL; concentration at 4 h [11]: 70 ng/g; IC50 [12]: 16.9 nM; IC50 [13]: 9.66 nM; concentration at 2 h [14]: 55 ng/g; concentration at 2 h [15]: 109 ng/mL
Cc1cnc(N[C@H]2CC[C@@H](NC(=O)c3ccc(Cl)cc3)CC2)nc1N(C)C	10	1590	300	760	> 10000	–
Cc1cnc(N[C@H]2CC[C@@H](CNC(=O)c3cccc(C(F)(F)F)c3)CC2)nc1N(C)C	26	–	–	–	–	–
CCc1cnc(N[C@H]2CC[C@@H](NC(=O)c3ccc(F)c(F)c3)CC2)nc1N(C)C	100	–	–	–	–	–
Cc1nc(N[C@H]2CC[C@@H](NC(=O)c3ccc(F)c(F)c3)CC2)nc(N(C)C)c1C	2.3	–	–	–	–	–
Cc1cc(N(C)C)nc(N[C@H]2CC[C@@H](NC(=O)c3ccc(Cl)c(Cl)c3)CC2)n1	4.8	130	130	390	> 10000	–
